This note sets out measurements from ChEMBL document CHEMBL5131519, “Conversion of a False Virtual Screen Hit into Selective JAK2 JH2 Domain Binders Using Convergent Design Strategies” (ACS Med Chem Lett, 2022).

Data set [1] is described as follows: Binding affinity to wild type JAK2 JH1 catalytic domain (unknown origin) expressed in Sf9 cells and measured upto 30 mins by competitive fluorescence polarization assay. The arrangement: species or system Homo sapiens.
Data set [2] concerns the target Tyrosine-protein kinase JAK2 (Homo sapiens, UniProt O60674, V617F). The data set can be described thus: Binding affinity to wild type JAK2 JH2 pseudokinase domain (unknown origin) V617F mutant expressed in Sf9 cells and measured upto 30 mins by competitive fluorescence polarization assay.
In data set [3] the target is T1, Tyrosine-protein kinase JAK2 (Homo sapiens, UniProt O60674). The data set can be described thus: Binding affinity to wild type JAK2 JH2 pseudokinase domain (unknown origin) expressed in Sf9 cells and measured upto 30 mins by competitive fluorescence polarization assay.
Data set [4] concerns the target T1, Tyrosine-protein kinase JAK2. Description: Binding affinity to wild type JAK2 JH2 pseudokinase domain (unknown origin) expressed in Sf9 cells at 50 uM and measured upto 30 mins competitive fluorescence polarization assay.
A further data set in a line: in vitro. The arrangement: dose or concentration left out as unconfirmed. As to conditions: PAMPA, pH 7.4.

Molecules are shown by their SMILES.

T1 sequence (O60674 whole entry, the tested form may be a part): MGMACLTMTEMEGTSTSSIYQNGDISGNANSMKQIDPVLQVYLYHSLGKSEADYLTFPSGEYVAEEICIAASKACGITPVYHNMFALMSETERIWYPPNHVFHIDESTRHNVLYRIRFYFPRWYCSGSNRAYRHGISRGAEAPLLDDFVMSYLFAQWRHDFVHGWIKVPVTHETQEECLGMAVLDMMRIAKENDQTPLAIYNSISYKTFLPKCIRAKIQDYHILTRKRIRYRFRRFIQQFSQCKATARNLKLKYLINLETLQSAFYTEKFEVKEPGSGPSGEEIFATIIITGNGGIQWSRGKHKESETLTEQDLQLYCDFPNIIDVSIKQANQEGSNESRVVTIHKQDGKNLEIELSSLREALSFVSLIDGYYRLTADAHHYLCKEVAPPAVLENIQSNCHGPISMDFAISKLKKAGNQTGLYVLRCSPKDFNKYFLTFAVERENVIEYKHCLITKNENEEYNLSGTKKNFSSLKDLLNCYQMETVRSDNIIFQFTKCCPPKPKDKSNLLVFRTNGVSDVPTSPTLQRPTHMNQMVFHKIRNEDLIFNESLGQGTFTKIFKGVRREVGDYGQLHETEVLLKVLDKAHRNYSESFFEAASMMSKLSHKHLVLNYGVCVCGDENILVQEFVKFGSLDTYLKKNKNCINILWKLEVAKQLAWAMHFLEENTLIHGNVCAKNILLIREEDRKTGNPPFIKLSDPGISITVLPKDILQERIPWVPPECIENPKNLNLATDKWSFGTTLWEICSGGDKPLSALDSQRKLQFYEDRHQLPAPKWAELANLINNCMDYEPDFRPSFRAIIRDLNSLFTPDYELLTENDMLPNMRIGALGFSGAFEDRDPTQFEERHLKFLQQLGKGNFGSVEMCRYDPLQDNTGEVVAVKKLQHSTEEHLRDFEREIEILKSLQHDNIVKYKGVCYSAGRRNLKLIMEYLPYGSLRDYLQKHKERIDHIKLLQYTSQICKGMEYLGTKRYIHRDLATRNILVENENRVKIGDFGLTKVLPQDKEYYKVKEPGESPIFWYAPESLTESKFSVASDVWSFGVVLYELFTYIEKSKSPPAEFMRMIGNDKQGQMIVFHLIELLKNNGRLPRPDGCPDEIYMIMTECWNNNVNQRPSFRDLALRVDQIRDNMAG
Tyrosine-protein kinase JAK2 (Homo sapiens, UniProt O60674, V617F), sequence (O60674 whole entry V617F, the tested form may be a part): as the sequence (O60674 whole entry, the tested form may be a part) above, with V617F counted along it
Description for in vitro: Permeability of compound in PBS buffer at pH 7.4 at 500 mM incubated for 18 hrs by UV plate reader based PAMPA assay

Turning to `Nc1nc(Oc2ccc(NC(=O)N[C@@H](CCc3ccccc3)C(=O)O)cc2)c2cc[nH]c2n1`, the Kd amounted to 36100 nM in data set [1], 179 nM in data set [2] and 327 nM in data set [3].
`Nc1nc(Oc2ccc(NC(=O)N[C@@H](CCCc3ccccc3)C(=O)O)cc2)c2cc[nH]c2n1`: the Kd in data set [3] turned out to be 587 nM.
In data set [3], `Nc1nc(Oc2ccc(NC(=O)N[C@@H](Cc3ccccc3)C(=O)O)cc2)c2cc[nH]c2n1` had a Kd of 2220 nM.
`Nc1nc(Oc2ccc(NC(=O)N[C@H](Cc3ccccc3)C(=O)O)cc2)c2cc[nH]c2n1` returned a Kd in data set [3] of 9900 nM.
In data set [4], `Nc1nc(Oc2ccc(NS(=O)(=O)CCC(=O)O)cc2)c2cc[nH]c2n1` yielded an Activity of 18%.
For the compound `Nc1nc(-c2ccc(S(=O)(=O)CCC(=O)O)cc2)c2cc[nH]c2n1`, the Activity in data set [4] was 4%.
As for `Nc1nc(Oc2ccc(NC(=O)CCC(=O)O)cc2)c2cc[nH]c2n1`, binding in data set [3] was characterised by a dissociation constant (Kd) of 18800 nM.
For `Nc1nc(Oc2ccc(NC(=O)N[C@@H](COCc3ccccc3)C(=O)O)cc2)c2cc[nH]c2n1`, binding in data set [3] was characterised by a dissociation constant (Kd) of 590 nM.
For the compound `O=C(N[C@H](CO)[C@H](O)c1ccc([N+](=O)[O-])cc1)C(Cl)Cl` [CHLORAMPHENICOL], the Papp at 18 h in “in vitro” amounted to 4.53 ×10⁻⁶ cm/s.
In turn, `Nc1nc(Oc2ccc(NC(=O)NCCC(=O)O)cc2)c2cc[nH]c2n1` displayed an Activity in data set [4] of 30%.
In data set [4], `Nc1nc(Oc2ccc(NC(=O)CCCC(=O)O)cc2)c2cc[nH]c2n1` registered an Activity of 27%.
For `Nc1nc(Oc2ccc(NC(=O)N[C@H](CCc3ccccc3)C(=O)O)cc2)c2cc[nH]c2n1`, the Activity in data set [4] is 46%.
